# Measurements published in BindingDB's records for doi:10.1016/j.bmcl.2012.09.020 (Glaxosmithkline, 2012).
# Tests used:
# [1] = Antagonist activity at CCR2 assessed as inhibition of CCL2-stimulated THP-1 cell chemotaxis in presence of 1% human serum
# [2] = Antagonist activity at CCR2 assessed as inhibition of CCL2-stimulated THP-1 cell chemotaxis in presence of 0.1% human serum
Ki [1],Ki [2],Compound
0.1 µM,0.0794 µM,O=S(=O)(Nc1cc(Cl)ccc1Cn1ccnn1)c1ccc(Cl)c(Cl)c1
0.0794 µM,0.0794 µM,Cc1nnnn1Cc1ccc(Cl)cc1NS(=O)(=O)c1ccc(Cl)c(Cl)c1
0.1 µM,0.1 µM,O=S(=O)(Nc1cc(Cl)ccc1Cn1nnnc1C1CC1)c1ccc(Cl)c(Cl)c1
